The text below walks through data of patent US10335455B2, “Method for prevention or treatment of intractable inflammatory bowel disease” (University of Miyazaki, priority 2011, dated 2019).

For data set [1], the system named is various disease model animals. The data set can be described thus: Continuous intravenous injection of adrenomedullin for 1 month in disease model animals. It counts as in vivo. Conditions: continuous intravenous injection for 1 month. The procedure:
(§1) The safety of continuous intravenous injection of adrenomedullin for 90 minutes was confirmed in 28 subjects including normal individuals. […] In the present Examples, 2 weeks of the animal test period was set to the continuous administration period.

Data set [2] has as its system subjects including normal individuals. The data set can be described thus: Safety tests of continuous intravenous injection of adrenomedullin in subjects including normal individuals. It counts as in vivo, human. The procedure:
as §1

Data set [3] relates to patients with steroid-resistant or steroid-dependent ulcerative colitis. Nature of the data set: Continuous intravenous administration of adrenomedullin to patients with intractable ulcerative colitis. Conditions: for DAI (Average): 6 cases, immediately before administration 9.0 ± 1.4; for Endoscopic findings in the large bowel: maintenance of remission: continuation treatment azathioprine 50 mg/day. It counts as in vivo, human.

The subject of data set [4] is large bowel artificial ulcer model. The data set can be described thus: Enema administration to a large bowel artificial ulcer model. To be noted: 5.0 μg/kg body weight. It counts as in vivo.
Data set [5] concerns DSS enteritis (diffuse colitis). The data set can be described thus: Administration in DSS enteritis (diffuse colitis) model. It counts as in vivo. To be noted: 2.5 μg/kg body weight.
Data set [6] has as its system colitis model. Conditions: Gonzalez et al.; intraperitoneal administration of 12 μg/kg body weight; cited from earlier work.
The test system of data set [7] is inflammatory bowel disease model. It counts as in vivo. An excerpt: Thus, in the adrenomedullin administration, a low dose to an extent not greatly affecting circulatory dynamics is preferably used; a high dose rather makes it worse.

“Also recorded” adds a separate entry of the source.

As to `CC[C@H](C)[C@H](NC(=O)[C@H](CCC(N)=O)NC(=O)[C@H](Cc1c[nH]cn1)NC(=O)[C@H](C)NC(=O)[C@H](CC(C)C)NC(=O)[C@H](CCCCN)NC(=O)[C@H](CCC(N)=O)NC(=O)[C@@H](NC(=O)[C@@H](NC(=O)[C@@H]1CSSC[C@H](NC(=O)CNC(=O)[C@H](Cc2ccccc2)NC(=O)[C@H](CO)NC(=O)[C@H](CCCNC(=N)N)NC(=O)[C@H](CC(C)C)NC(=O)CNC(=O)[C@H](CCC(N)=O)NC(=O)[C@H](Cc2ccccc2)NC(=O)[C@H](CC(N)=O)NC(=O)[C@H](CC(N)=O)NC(=O)[C@H](CCSC)NC(=O)[C@H](CO)NC(=O)[C@H](CCC(N)=O)NC(=O)[C@H](CCCNC(=N)N)NC(=O)[C@@H](N)Cc2ccc(O)cc2)C(=O)N[C@@H](CCCNC(=N)N)C(=O)N[C@@H](Cc2ccccc2)C(=O)NCC(=O)N[C@@H]([C@@H](C)O)C(=O)N1)[C@@H](C)O)C(C)C)C(=O)N[C@@H](Cc1ccc(O)cc1)C(=O)N[C@@H](CCC(N)=O)C(=O)N[C@@H](Cc1ccccc1)C(=O)N[C@H](C(=O)N[C@@H](CC(=O)O)C(=O)N[C@@H](CCCCN)C(=O)N[C@@H](CC(=O)O)C(=O)N[C@@H](CCCCN)C(=O)N[C@@H](CC(=O)O)C(=O)N[C@@H](CC(N)=O)C(=O)N[C@H](C(=O)N[C@@H](C)C(=O)N1CCC[C@H]1C(=O)N[C@@H](CCCNC(=N)N)C(=O)N[C@@H](CO)C(=O)N[C@@H](CCCCN)C(=O)N[C@H](C(=O)N[C@@H](CO)C(=O)N1CCC[C@H]1C(=O)N[C@@H](CCC(N)=O)C(=O)NCC(=O)N[C@@H](Cc1ccc(O)cc1)C(N)=O)[C@@H](C)CC)C(C)C)[C@@H](C)O` [adrenomedullin, synthetic human adrenomedullin], the Safety and efficacy result in data set [1] is “confirming the safety and efficacy thereof”. The Blood pressure reduction result in data set [2] (2.5 pmol/kg body weight/min, continuous administration for 27 hours) is recorded as “more than 20 mmHg”; in data set [3] (one patient, 1.5 pmol/kg body weight/min during 14 days of administration), at most 10 mmHg. The “Safety of continuous intravenous injection” value in data set [2] (90 minutes, 28 subjects including normal individuals) is given as “confirmed”. In data set [2] (continuous intravenous injection for 27 hours, 12 subjects), the Adverse events result was “no adverse event was observed”. The “DAI (Average)” value in data set [3] (12 weeks after start of administration, p 0.0001) worked out at 1.0 ± 1.15; in data set [3] (14 days after start of administration, 1.5 pmol/kg body weight/min i.v., 8 hours/day, p 0.0028) it was 5.0 ± 2.4. Besides, the “Mucosal regeneration in the affected areas” value in data set [3] (all 6 cases) is recorded as “prominent mucosal regeneration was also confirmed”. The Remission maintenance entry in data set [3] (all 6 cases) is “remission was maintained”. In addition, the Treatment effects result in data set [3] (all 6 cases of adrenomedullin administration) was “treatment effects were confirmed in all cases”. Moreover, in data set [3] (in 4 cases of 6), the “DAI improvement at 14 days after adrenomedullin administration” value is given as at least 4 points. Also, in data set [3] (one patient, 1.5 pmol/kg body weight/min i.v.), the “Variation in the blood concentration of adrenomedullin immediately after administration” value was “smaller than variation due to inflammation”. For the same molecule, the “Endoscopic findings in the large bowel: maintenance of remission” value is “confirmed the maintenance of the remission; also recorded: Remission maintenance was confirmed” in data set [3] (one patient, 3 months after adrenomedullin administration) and “also confirmed the maintenance of the remission” in data set [3] (one patient, 12 months after adrenomedullin administration). For the same molecule, in data set [3] (one patient, after 14 days of continuous administration, 1.5 pmol/kg body weight/min, 8 hours/day), the “Endoscopic findings in the large bowel” value was “remission due to adrenomedullin was confirmed; also recorded: marked proliferation of regenerated epithelium (left) and scarring of shallow wide ulcer (right)”. Also, in data set [3] (one patient, during 14 days of administration), the “Symptoms considered to be side effects” value is “not observed”. Moreover, the “Effect in large bowel artificial ulcer model” value in data set [4] is given as “highest”. Moreover, the “Effect in DSS enteritis (diffuse colitis)” value in data set [5] is recorded as “a high effect has also been observed”. Moreover, the “Efficacy in colitis model” value in data set [6] is given as “has shown the efficacy”. Besides, the “Curve of adrenomedullin dose versus anti-inflammatory/mucosa-repairing effect” value in data set [7] (animal experiments) was “anti-bell shape”. Also, the “Blood pressure reduction at the optimal (low) dose” value in data set [7] (in vivo) is reported as “proved not to cause blood pressure reduction”.
